Results: US12060588B2, “Methods of editing DNA methylation” (Whitehead Institute for Biomedical Research, priority 2016, dated 2024)

Assays:
[1] = test system: off-target binding sites at Vac14, Tenm4, Vrk1 and Gm42619 loci; test: Bisulfite sequencing of off-target binding sites; format: cell-based, mouse
BDNF promoter IV = test: Bisulfite sequencing of BDNF promoter IV in mouse cortical neurons; format: cell-based; conditions: with 4 BDNF gRNAs, in contrast to gRNA negative controls
Procedure: FIGS. 3A-3E depict targeted demethylation of BDNF promoter IV by dCas9-Tet1 to activate BDNF in neurons. FIG. 3A provides a schematic representation of targeting BDNF promoter IV by dCas9-Tet1 (dC-T) with specific gRNAs to erase methylation and activate BDNF expression. […] Bars are mean t SD of three biological replicates. FIG. 3C provides representative confocal images for BDNF induction in FIG. 3B. Top panel: BDNF expression was induced by 50 mM KCl treatment for 6 hrs. […] Stained in red for MAP2 (top two panels) or Cherry (bottom two panels), green for BDNF, blue for DAPI and grey for dCas9. Scale bar: 50 um. FIG. 3D depicts bisulfite sequencing of neurons in FIG. 3C. […] Shown is the mean percentage±SD of two biological replicates.
DNA replication-independent active demethylation has been proposed to operate in post-mitotic neurons (Guo et al., 2011; Martinowich et al., 2003). To test whether active demethylation can be induced in post-mitotic neurons, we applied the dCas9-Tet1 system to study the regulation of the BDNF gene. BDNF expression can be induced by neuronal activity accompanied by demethylation of its promoter IV (Chen et al., 2003; Martinowich et al., 2003). We designed 4 gRNAs targeting 11 CpGs in BDNF promoter IV (FIG. 11A) to determine whether dCas9-Tet1 can activate BDNF by inducing demethylation of this promoter (FIG. 3A). […]

[2] = test system: Snrpn promoter region and adjacent Dazl locus; test: Bisulfite sequencing of the Dazl-Snrpn region in mESCs; format: cell-based, mouse; conditions: with target gRNAs
Procedure: FIGS. 1A-IF depict activation of the Daz1-Snrpn-GFP reporter by dCas9-Tet1. […] FIG. 1B is a schematic representation of targeting the Snrpn promoter region by dCas9-Tet1 with specific gRNAs to erase methylation and activate GFP expression. […] Percentage of GFP positive cells were calculated by flow cytometric analysis of these cells 3-day post infection, and shown as the mean percentages of GFP positive cells±SD of two biological replicates. Note that the percentages of GFP-positive cells are expressed as the fraction of infected Cherry-positive cells. […] Scale bar: 250 um. Right: provides percentages of GFP positive colonies were quantified, and shown as the mean percentages of GFP positive cells±SD of two biological replicates. […] FIG. 1F provides methylation levels of individual CpGs in the Snrpn promoter region and the adjacent Dazl locus. Shown is the mean percentage±SD of two biological replicates.
Demethylation of specific CpGs: To test whether defined sequences could be demethylated, we introduced the dCas9-Tet1 construct in combination with gRNAs to target the Snrpn-GFP reporter inserted into the Dazl promoter (FIG. 1B and FIG. 9A). […] To assess the activation efficiency by dCas9-Tet1 with target gRNAs, we analyzed the cells infected by both viruses using FACS. […] We further analyzed the GFP-positive and -negative populations within infected Cherry-positive cells. […]

[3] = test system: MyoD distal enhancer (DMR-5) / MyoD expression; test: MyoD expression in C3H10T1/2 cells (RT-qPCR); format: cell-based, mouse

dCas9-Tet1: catalytically inactive Cas9 (dCas9) fused through NLS to the Tet1 catalytic domain, SEQ ID NO: 159; lentivirally expressed with gRNAs
change in methylation level at second and third strongest (off-target) binding sites [1]: only marginal change in methylation level | methylation of BDNF promoter IV (BDNF promoter IV): significantly reduced methylation | methylation status of Snrpn promoter region and adjacent Dazl locus [2]: robust demethylation only in the Snrpn promoter region but not the adjacent Dad locus | induction of MyoD expression ([3]; MyoD DMR-5 gRNAs combined with 5-Aza treatment (48-hour)): higher induction of MyoD | induction of MyoD expression ([3]; with 4 gRNAs targeting DMR-5, C3H10T1/2 cells, 2 days, Cherry positive sorted): 3 fold
